# Experiments:
# Assay type in all cases: cell-based, Listeria monocytogenes
# L. monocytogenes = test: Growth yields in MWB at 30° C.; conditions: data not shown
# [1] = test system: L. monocytogenes Scott A to AGS cell; test: Invasion analysis (gentamicin-based) on AGS cells; conditions: CMP 0.4 mg/ml, at the lower MOI, 1.5 h 37° C.
# Description: The human intestinal epithelial cell line HT-29 and the human gastric epithelial cell line AGS were purchased from the Korea Cell Line Bank (KCLB; Seoul, Korea). HT-29 cells have been extensively used as a model system for studying interaction of enteric pathogens with intestinal epithelial cells. All media and fetal bovine serum (FBS) were obtained from Gibco BRL (Life Technologies Inc., Grand Island, N.Y., USA) and JBI (Jeil Biotech services Inc., Seoul, Korea). The HT-29 and AGS cells were grown in RPMI-1640 medium which was supplemented with 10% heat-inactivated FBS. The cells were routinely cultured at 37° C. in 5% CO2 incubator with 6-well or 12-well tissue culture plates for adhesion and invasion assays and in 100-mm-diameter tissue culture plates for RNA isolation.
# The invasion of epithelial cells by L. monocytogenes Scott A was studied using the gentamicin-based assay described by Bunduki et al. (1993) and Gaillard et al. (1987) with modifications. Briefly, the HT-29 and the AGS cells monolayers (10^6 cells) were inoculated with 100 μl of the L. monocytogenes Scott A suspension (10^8 and 10^6 CFU/ml) and incubated for 1.5 h at 37° C. in the absence or presence of 0.4 mg/ml CMP, respectively. The monolayers were washed with PBS, followed by the addition of 250 μl of 1 mg/ml gentamicin (Sigma) and incubation for an additional 1.5 h. […]
# [2] = test system: L. monocytogenes Scott A biofilm cells; test: Two-dimensional gel electrophoresis / LC-MS/MS of biofilm cell protein extracts
# Protocol: This biofilm formation protocol was adapted from that used for the microtiter plate assay in this invention, to obtain a sufficient quantity of biofilm cells for two-dimensional gel electrophoresis (2-DE). Biofilms were prepared by using a slight modification of a previously described method (Ren et al., 2004). L. monocytogenes was grown in TSBYE overnight, and a 2.5 ml overnight culture was washed twice with PBS. Then, the cells were inoculated into a 250-ml shake flask containing 100 ml fresh MWB with or without the effective concentration of CMP on 10 g sterilized glass wool (Pyrex fiber glass; Corning, N.Y., USA). The cells were incubated with shaking (250 rpm in a shaking incubator; Vision Scientific Co., Ltd., Korea) at 30° C. to form a biofilm on the glass wool. After 24 h inoculation, the glass wool was retrieved from the culture, and quickly and gently washed twice in 100 ml of 0.85% sodium chloride buffer (within 30 s) at 4° C. The biofilm cells were removed from the glass wool by sonication in 200 ml of 0.85% sodium chloride buffer at 4° C. for 2 min. The buffer was then centrifuged (8,000×g in a VS-21S MT centrifuge; Vision Scientific Co., Ltd.) for 10 min at 4° C. to precipitate the biofilm cells. These cells were washed twice by centrifugation (8,000×g, 10 min, 4° C.) with 0.85% sodium chloride buffer; the cell pellets were flash-frozen in liquid nitrogen. While sonicating, suspended biofilm cells with an optical density at 600 nm of 2 were harvested by centrifugation (8,000×g) at room temperature for 10 min in an Eppendorf tube. The cell pellets were then flash-frozen in liquid nitrogen and kept at −80° C. until protein extraction.
# The biofilm cells harvested from the glass wool were suspended in the same lysis buffer (TE buffer; 40 mM Tris, 1 mM EDTA, pH 8.0) and lysed by using Ultraschallprozessor UP200S (amplification 70, 0.5 cycle; Dr. Hielscher GmbH) 20 times for 30 s on ice. Following sonication, the unlysed cells, cell debris, and glass fibers were removed by centrifugation (8,000×g, 4° C.), and the supernatant fluids were recovered.
# Protein samples were precipitated by using the phenol protocol of Hanna et al. (2000). The protein concentration was determined by using the modified Bradford assay method (Ramagli, 1999). The protein samples were stored at −80° C. until proteomic analysis.
# The method described by Kim et al. (2006) with slight modifications was used for 2-DE. In the first dimension of isoelectric focusing (IEF), precast immobilized pH gradient (IPG) strips, with a nonlinear gradient from pH 3 to 10 (Bio-Rad Laboratories, Richmond, Calif., USA), were rehydrated for 12-18 h with 500 μg of protein in 300 μl of rehydration buffer (8 M urea, 2% CHAPS, 50 mM DTT, 10% isopropanol, 5% glycerol, 0.002% bromophenol blue, 0.2% ampholytes, water). In accordance with the manufacturer's instructions, focusing was performed by using a Protean IEF cell system (Bio-Rad Laboratories) at 20° C. under 60,000 Vh. After IEF, the strips were incubated for 10 min in equilibration buffer I (6 M urea, 2% SDS, 20% glycerol, 130 mM DTT, 0.375 M Tris-HCl [pH 8.8]), followed by another 10 min in equilibration buffer II (6 M urea, 2% SDS, 20% glycerol, 135 mM iodoacetamide, 0.375 M Tris-HCl [pH 8.8]). After equilibration, the strips were transferred to 12.5% sodium dodecyl sulfate (SDS)-polyacrylamide gels (20×22 cm) for running in the second dimension.
# The proteins were separated by using a Protean II xi system (Bio-Rad Laboratories) with 20 mA per gel at 4° C. The protein spots were visualized by blue-silver staining (Candiano et al., 2004). The stained gels were then scanned with a densitometric scanner (UTA 2100XL; UMAX, Dallas, Tex., USA), and the spots were analyzed by using the PDQuest software (Bio-Rad Laboratories) in accordance with the manufacturer's instructions. Four gels resulting from two independent experiments were obtained, and two gels of good quality were used for analysis. […]
# [3] = presence of 0.4 mg/ml CMP vs absence
substance,measurement,setting,value
κ-casein macropeptide [CMP],effect on growth yields,L. monocytogenes,did not significantly affect
same,invasion of L. monocytogenes Scott A,[1],prevented
same,protein spots with increase or decrease in amounts compared to the control,"[2]; 0.4 mg/ml CMP, about 320 spots visualized",two and seven spots were up- and down-regulated
same,"FC, Fold difference in biofilm: spot 0302 enolase",[2]; [3],−3.8 Fold
same,"FC, Fold difference in biofilm: spot 2004 glutamine synthetase",[2]; [3],+2.4 Fold
same,"FC, Fold difference in biofilm: spot 4405 6-phosphofructokinase",[2]; [3],−2.8 Fold
same,"FC, Fold difference in biofilm: spot 5104 hypothetical protein Smal_0271",[2]; [3],∇
same,"FC, Fold difference in biofilm: spot 5105 conserved hypothetical protein",[2]; [3],−2.0 Fold
same,"FC, Fold difference in biofilm: spot 5206 Gap",[2]; [3],+2.9 Fold
same,"FC, Fold difference in biofilm: spot 5207 hypothetical protein Smal_0271",[2]; [3],−2.4 Fold
same,"FC, Fold difference in biofilm: spot 6103 glutamine synthetase",[2]; [3],−2.0 Fold
same,"FC, Fold difference in biofilm: spot 7202 phosphoglycerate mutase 1 family",[2]; [3],−3.2 Fold

# From patent US8383582B2, “Inhibitor against forming biofilm comprising κ-casein macropeptide” (Industry Foundation of Chonnam National University, priority 2010, dated 2013)
